Assay results published in US20250302817A1, “METHODS FOR TREATING PTEN-MUTANT TUMORS” (Icahn School of Medicine at Mount Sinai, priority 2016, published 2025).
Where two headings read alike, the source gives them in different places.

What was measured:
[1] = cited from earlier work
[2] = cited from earlier work; for median t½: healthy volunteers and MS patients
[3] = cited from earlier work; remark: listed apart in the source
[4] = multiple sclerosis patients, cited from earlier work; for Alopecia / Arthralgia / Diarrhea / Headache / Nausea / Neutropenia / Parathesia: all grades
[5] = biological target: T1, CYP2C19 (Homo sapiens, UniProt P33261); conditions: in vivo; cited from earlier work
T1 construct: omeprazole (a CYP2C19 substrate); host or cells: human subjects, in vivo
T1 sequence (P33261 whole entry): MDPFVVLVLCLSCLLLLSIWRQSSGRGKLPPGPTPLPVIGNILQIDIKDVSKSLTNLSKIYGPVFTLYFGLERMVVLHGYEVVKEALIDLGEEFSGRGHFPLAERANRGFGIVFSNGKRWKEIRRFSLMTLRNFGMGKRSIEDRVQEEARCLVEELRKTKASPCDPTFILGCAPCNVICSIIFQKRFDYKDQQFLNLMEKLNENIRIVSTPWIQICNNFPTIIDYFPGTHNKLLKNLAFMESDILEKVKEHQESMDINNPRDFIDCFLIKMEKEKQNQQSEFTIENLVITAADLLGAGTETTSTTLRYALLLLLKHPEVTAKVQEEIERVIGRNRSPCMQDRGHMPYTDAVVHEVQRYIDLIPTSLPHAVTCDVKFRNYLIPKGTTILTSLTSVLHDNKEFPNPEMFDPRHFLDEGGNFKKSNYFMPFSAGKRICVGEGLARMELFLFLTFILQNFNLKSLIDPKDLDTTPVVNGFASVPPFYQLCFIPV

[6] = biological target: T2, organic anion transporter 3 (OAT3) (Homo sapiens, UniProt Q8TCC7); conditions: repeated doses of teriflunomide; cited from earlier work
T2 construct: host or cells: human subjects, in vivo
T2 sequence (Q8TCC7 whole entry): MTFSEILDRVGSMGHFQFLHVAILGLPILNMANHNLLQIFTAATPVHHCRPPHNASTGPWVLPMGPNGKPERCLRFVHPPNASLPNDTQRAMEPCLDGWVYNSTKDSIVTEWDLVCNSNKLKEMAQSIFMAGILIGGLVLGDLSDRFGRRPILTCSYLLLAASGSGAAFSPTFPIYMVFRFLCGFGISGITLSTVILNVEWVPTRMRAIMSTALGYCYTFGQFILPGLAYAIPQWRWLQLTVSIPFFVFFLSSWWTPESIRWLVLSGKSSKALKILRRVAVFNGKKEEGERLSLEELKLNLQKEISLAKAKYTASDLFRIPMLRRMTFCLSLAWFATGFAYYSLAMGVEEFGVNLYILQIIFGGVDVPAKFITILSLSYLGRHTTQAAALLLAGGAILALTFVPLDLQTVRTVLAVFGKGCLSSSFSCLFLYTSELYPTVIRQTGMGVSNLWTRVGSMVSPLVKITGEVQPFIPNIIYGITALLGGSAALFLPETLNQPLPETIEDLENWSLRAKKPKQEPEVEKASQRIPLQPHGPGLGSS

[7] = tested on: Pten^−/− and WT MEFs; assay: Drug response assay (GI50 dose titration) in Pten WT and KO MEFs; type: cell-based, mouse; conditions: GI50 dose titration (FIG. 2A)
Protocol: FIG. 2F is a graph comparing various human breast cancer cell line growth rates. FIG. 2G is a series of immunoblots of pAKT in nuclear fractions of Pten^−/− and Pik3ca mutant MEFs. […] Data shown as mean+SD.
1500 cells per well (mouse cells) or 3000 cells per well (human cells) were plated in 96-well plates (Corning 720089). Growth rates were determined using the phase-confluency readings on an IncuCyte ZOOM (Essen Biosciences) on live cells over time.
Cells were plated in 96-well plates at a density of 1500 or 3000 cells per well. […] Sensitivity was determined by a dose-response titration for each cell line, with an equivalent amount of DMSO in each well. For cell death assays, DRAQ7™ (Cell Signaling 7406S) was added to the media at a 1:200 dilution and red fluorescence was measured in addition to phase in live-cell imaging to measure accumulation of dead cells. An IncuCyte ZOOM was used.

[8] = tested on: ATR phosphorylation of CHK1 at serine 345; assay: Immunoblot of pChk1; type: cell-based; conditions: 150 μM A771726; Pten WT versus Pten^−/− cells
[9] = biological target: T3, albumin (Homo sapiens, UniProt P02768); conditions: cited from earlier work
T3 construct: host or cells: human subjects (circulating albumin)
T3 sequence (P02768 25-609): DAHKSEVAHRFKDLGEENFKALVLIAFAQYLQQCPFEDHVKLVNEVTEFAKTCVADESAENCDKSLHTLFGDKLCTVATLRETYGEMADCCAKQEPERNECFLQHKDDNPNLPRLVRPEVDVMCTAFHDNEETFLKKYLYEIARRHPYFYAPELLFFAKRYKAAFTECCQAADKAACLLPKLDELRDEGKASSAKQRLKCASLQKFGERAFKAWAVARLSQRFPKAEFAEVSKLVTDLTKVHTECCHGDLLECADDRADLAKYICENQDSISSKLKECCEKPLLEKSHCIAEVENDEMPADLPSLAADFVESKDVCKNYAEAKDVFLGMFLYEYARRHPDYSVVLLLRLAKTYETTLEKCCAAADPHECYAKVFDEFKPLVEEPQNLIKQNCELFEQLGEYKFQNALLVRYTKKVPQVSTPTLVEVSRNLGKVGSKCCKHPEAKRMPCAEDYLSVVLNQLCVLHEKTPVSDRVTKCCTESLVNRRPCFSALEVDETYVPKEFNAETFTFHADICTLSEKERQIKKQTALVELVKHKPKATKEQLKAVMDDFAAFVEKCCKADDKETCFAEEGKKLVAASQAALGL

[10] = without accelerated elimination procedure

C/C(O)=C(\C#N)C(=O)Nc1ccc(C(F)(F)F)cc1 [teriflunomide, (Z)-2-Cyano-3-hydroxy-but-2-enoic acid-(4trifluoromethylphenyl)-amide]
free fraction of teriflunomide ([1]; patients with chronic renal insufficiency on CAPD or hemodialysis): almost doubled | impact of CAPD or hemodialysis on circulating levels of teriflunomide ([1]; single dose, patients (n=6) with chronic renal insufficiency): neither had a significant impact | effect of food on teriflunomide pharmacokinetics ([2]; human, in vivo): does not have a clinically relevant effect | time to reach steady-state concentrations ([2]; human, in vivo): approximately 3 months | volume of distribution (Vss) ([2]; human, in vivo): 0.13 L/kg | administered dose excreted via feces ([2]; over 21 days): 37.5% | administered dose excreted via feces and urine ([2]; over 21 days): 60.1% | administered dose excreted via urine ([2]; over 21 days): 22.6% | clearance rate less in females than in males ([2]; population analysis): 23% | increase in clearance, smokers over non-smokers ([2]; population-based pharmacokinetic analysis of phase III data): 38% | median t½ ([2]; repeated doses of 7 mg): approximately 18 days | median t½ ([2]; repeated doses of 14 mg): ~19 days | estimated AUC accumulation ratio ([2]; repeated doses of 7 or 14 mg): approximately 30 | total body clearance ([2]; single IV administration): 30.5 mL/h | time to reach plasma concentrations less than 0.02 mg/L, longest (individual variations in drug clearance) [2, 10]: ≤ 2 years | time to reach plasma concentrations less than 0.02 mg/L, on average [2, 10]: 8 months | additional dose eliminated (mostly in feces) ([3]; after accelerated elimination procedure with cholestyramine): 23.1% | decrease in teriflunomide plasma concentration ([3]; end of 11 days of cholestyramine or activated charcoal): more than 98% | Alopecia ([4]; 7 mg/day (n = 1045)): 10% | Arthralgia ([4]; 7 mg/day (n = 1045)): 8% | Diarrhea ([4]; 7 mg/day (n = 1045)): 13% | Headache ([4]; 7 mg/day (n = 1045)): 18% | Nausea ([4]; 7 mg/day (n = 1045)): 8% | Neutropenia ([4]; 7 mg/day (n = 1045)): 4% | Parathesia ([4]; 7 mg/day (n = 1045)): 8% | Elevated ALT, >3 × upper limit of normal ([4]; 7 mg/day (n = 1045)): 6% | Elevated ALT, serious adverse events leading to treatment withdrawal ([4]; 7 mg/day (n = 1045)): 3% | Hypertension (new onset) ([4]; 7 mg/day (n = 1045)): 3% | Peripheral Neuropathy, serious adverse events leading to treatment withdrawal ([4]; 7 mg/day (n = 1045)): 0.3% | Serious Infection ([4]; 7 mg/day (n = 1045)): 2% | Alopecia ([4]; 14 mg/day (n = 1002)): 13% | Arthralgia ([4]; 14 mg/day (n = 1002)): 6% | Diarrhea ([4]; 14 mg/day (n = 1002)): 14% | Headache ([4]; 14 mg/day (n = 1002)): 16% | Nausea ([4]; 14 mg/day (n = 1002)): 11% | Neutropenia ([4]; 14 mg/day (n = 1002)): 6% | Parathesia ([4]; 14 mg/day (n = 1002)): 9% | Elevated ALT, >3 × upper limit of normal ([4]; 14 mg/day (n = 1002)): 6% | Elevated ALT, serious adverse events leading to treatment withdrawal ([4]; 14 mg/day (n = 1002)): 3% | Hypertension (new onset) ([4]; 14 mg/day (n = 1002)): 4% | Peripheral Neuropathy, serious adverse events leading to treatment withdrawal ([4]; 14 mg/day (n = 1002)): 0.5% | Serious Infection ([4]; 14 mg/day (n = 1002)): 3% | effect on pharmacokinetics of omeprazole (a CYP2C19 substrate) [5]: does not affect the pharmacokinetics | increase in mean cefaclor AUC [6]: 1.54 fold | increase in mean cefaclor Cmax [6]: 1.43 fold | sensitivity of Pten^−/− MEFs compared with WT MEFs [7]: more sensitive | ATR phosphorylation of CHK1 at serine 345 [8]: triggered ATR phosphorylation of CHK1 at serine 345 in Pten WT, but to a much lesser extent in Pten^−/− cells | bound to albumin ([9]; healthy subjects): > 99.3% | free fraction of teriflunomide ([9]; patients with chronic renal failure): approximately doubled | free fraction of teriflunomide ([9]; patients with rheumatoid arthritis): slightly higher | protein binding linearity ([9]; therapeutic concentrations): linear
